The text below walks through data of patent US8163528B2, “Nucleic acid molecules encoding thymidine kinase fusion proteins” (Darwin Molecular Corporation, priority 1997, dated 2012).

Data set [1] is described as follows: Time course analysis of mutant enzymes (thymidine phosphorylation). It is filed as biochemical. Conditions: 30° C., 0-30 minutes; adjusted to protein synthesis. Here is the method: For the high-activity mutant enzymes, unlabeled translation products were diluted 1/9 and incubated for 0, 5, 10, 20, or 30 minutes at 30° C.
The low-activity mutants were diluted 1/5, and the rate of phosphorylation as a function of time was also determined.

Another data set relates to KY895. The experiment in a line: Secondary screen: colony formation on acyclovir, AZT, TK selection and LB plates. Conditions: for colonies on AZT plates: 1 μg/mL thymidine+0.05 μg/mL AZT; for colonies on AZT plates / colonies on ACV plates / colonies on TK selection plates, 37° C.: 37° C.; for colonies on ACV plates: 1 μg/mL thymidine+1 μg/mL acyclovir; for colonies on LB plates: LB+carb50 plates. Details: key: ++: the same number of colonies were observed as compared to control plates; +: fewer (<20% those observed with pMCC) and generally smaller (˜50% smaller diameter) colonies were observed as compared to control plates; −: no colonies were observed. It is filed as cell-based, E. coli. As for the experimental part:
Mutant cultures were also spread onto duplicate TK selection and LB+carb50 plates. One set of TK selection plates and LB+carb50 plates were incubated at 42° C. All other plates were incubated at 37° C. After 16-24 hours the plates were scored.

Data set [2] in a line: Substrate specificity assay of cell-free translation products, deoxycytidine. In kind it is biochemical. The text has this:
(§1) No significant difference in phosphorylation efficiency was observed between pT7:MCC and pT7:HSVTKII when thymidine (1.3-fold), deoxycytidine (1.3-fold), GCV (0.8-fold), ACV (0.95-fold), or AZT (1.1-fold) were used as substrate. Furthermore, Sanderson et al. (J. Mol. Biol. 202:917-919, 1988) reported that the Km for thymidine and ATP and the Vmax of TK purified from E. coli harboring pHETK2 (the parent plasmid of pMCC) and HSV-1-infected cells were indistinguishable. Therefore, the alterations observed in the properties of the mutant TKs can be attributed to the nucleotide substitutions within the target region and that any differences between the vectors (pT7:MCC and pT7:HSVTKII) exerted only minor changes in catalytic properties.
(§2) Three of the mutants (P155A/F161V, F161I and F161C) were assayed in triplicate for the relative levels of phosphorylation using thymidine, deoxycytidine, ACV, GCV, or AZT as substrates. Briefly, forty-eight […] of each tritiated substrate was used in each assay reaction. Translation products were diluted for each nucleoside assay as follows (translation/H2O): 1/100, thymidine; 2/3, deoxycytidine, GCV, and AZT; 4/1, ACV. Each set of assays was incubated for 2 hours at 30° C. and the amount of phosphorylated product determined.

Data set [3] is described as follows: Substrate specificity assay of cell-free translation products, ACV. In kind it is biochemical.
Excerpt: as §1, §2

The format of data set [4] is biochemical. Conditions: for thermal stability after 42° C. preincubation compared to HSVTKII: cell-free translation products. As for the experimental part: To substantiate this observation, cell-free translation products were incubated at 42° C. for increasing times prior to being assayed for enzyme activity. Briefly, cell free translation (“CFT”) products of each high-activity mutant, -RNA, and HSVTKII samples were diluted 1/9 and incubated for 0, 5, 10, and 20 minutes at 42° C. The preincubated samples were then assayed for 5 minutes (P155A/F161V and F1611) or 20 minutes (-RNA, HSVTKII, F161C, and D162E). The percent of activity remaining was determined with the untreated samples set at 100%. […] Because F161C lost greater than 90% of enzyme activity within the first 20 minutes at 42° C., shorter incubation periods at 42° C. were performed […].
Low-activity mutant CFT products were diluted 1/5 and incubated for 0, 20, 40, or 60 minutes at 42° C. The preincubated samples were then assayed in triplicate for the thymidine phosphorylation for 60 minutes. The percent of activity remaining was determined using the untreated (time 0) sample as 100%.

Data set [5] can be described thus: Substrate specificity assay of cell-free translation products, thymidine. It is filed as biochemical.
Excerpt: as §1, §2

Another data set concerns BHK tk. The experiment in a line: Sensitivity of guanylate kinase transfectant pools to ACV in TK expressing clones. It is filed as cell-based, hamster. Conditions: guanylate kinase expression in the presence of wild-type TK. Here is the method: pREP8-7, pREP8-7:hgmk and pREP8-7:mgmk are used to transfect BHK tk, TK-transfected clone C3 and 75-transfected clone D4. Histidinol is used to select pools of stable transfectants and to isolate individual clones.
As in Example 8, pools of transfectants are placed in 96 well microtiter dishes at 1000 cells/well. Eight replicates are incubated for three days in the presence of various GCV or ACV concentrations.

Data set [6] can be described thus: Kinetic analysis of fusion proteins, GMP. It is filed as biochemical. Conditions: purified protein.

D162E: in data set [1], the “TK activity in time course analysis compared to wild-type” value (shortened to “TK activity … compared to wild-type”) is given as “no difference in activities when compared to the wild-type TK enzyme activities”.

Regarding F161C, in the data set with KY895, the “colonies on AZT plates” value is listed as “−”; the “colonies on ACV plates” value was “+ (fewer (<20% those observed with pMCC) and generally smaller (˜50% smaller diameter) colonies were observed as compared to control plates)”; the “colonies on TK selection plates, 37° C.” value was “++”; the “colonies on TK selection plates, 42° C.” value is listed as “++”. The “colonies on LB plates” value in the data set on KY895 is on record as “++”. For the same substance, the “phosphorylation of deoxycytidine over the wild-type enzyme” value in data set [2] stood at 2.8 fold. In addition, in data set [3], the “ACV phosphorylation over HSVTKII” value worked out at 2 fold. The “TK activity … compared to wild-type” value in data set [1] was “no difference in activities when compared to the wild-type TK enzyme activities”. Besides, in data set [4] (cell-free translation product), the “activity loss after 5 minutes at 42° C.” value is recorded as about 85% and the “enzyme activity lost within the first 20 minutes at 42° C.” value was “greater than 90%”.

For the substance F161I, in the data set with KY895, the “colonies on AZT plates” value was “+ (fewer (<20% those observed with pMCC) and generally smaller (˜50% smaller diameter) colonies were observed as compared to control plates)”; the “colonies on ACV plates” value is “+ (fewer (<20% those observed with pMCC) and generally smaller (˜50% smaller diameter) colonies were observed as compared to control plates)”; the “colonies on TK selection plates, 37° C.” value is “++”; the “colonies on TK selection plates, 42° C.” value is recorded as “++”. Further, in the data set on KY895, the “colonies on LB plates” value was “++”. The “phosphorylation of thymidine relative to HSVTKII” value in data set [5] was 2.2 fold. Besides, in data set [2], the “phosphorylation of deoxycytidine over the wild-type enzyme” value was determined as 1.9 fold. In addition, the “TK activity … compared to wild-type” value in data set [1] is reported as “statistically higher affinity for thymidine than the wild-type TK”.

In the case of F161I/R163H, in the data set on KY895, the “colonies on AZT plates” value is “++”; the “colonies on ACV plates” value was “++”; the “colonies on TK selection plates, 37° C.” value is given as “++”; the “colonies on TK selection plates, 42° C.” value is “+ (fewer (<20% those observed with pMCC) and generally smaller (˜50% smaller diameter) colonies were observed as compared to control plates)”. The “colonies on LB plates” value in the data set with KY895 is on record as “++”. Moreover, the “thermal stability after 42° C. preincubation compared to HSVTKII” value in data set [4] is reported as “equivalent to HSVTKII”.

As for F161L, in the data set with KY895, the “colonies on AZT plates” value was “++”; the “colonies on ACV plates” value is “++”; the “colonies on TK selection plates, 37° C.” value was “++”; the “colonies on TK selection plates, 42° C.” value is given as “−”. The “colonies on LB plates” value with KY895 is reported as “++”. Besides, the “TK activity … compared to wild-type” value in data set [1] was “moderate ability to phosphorylate thymidine, albeit at a much reduced rate from HSVTKII”. The “thermal stability after 42° C. preincubation compared to HSVTKII” value in data set [4] was “more thermolabile that HSVTKII”.

Turning to “Guanylate kinase: guanylate kinase expressed from pREP8-7 constructs in wild-type TK clone C3 (human or murine not stated)”, in the data set with BHK tk, the “increased sensitivity to ACV relative to TK expression alone” value was “approximately 2 fold”.

With “P155A/F161V: HSV-1 TK, proline to alanine mutation at position 155 and phenylalanine to valine at position 161”, in the data set with KY895, the “colonies on AZT plates” value is “+ (fewer (<20% those observed with pMCC) and generally smaller (˜50% smaller diameter) colonies were observed as compared to control plates)”; the “colonies on ACV plates” value is “++”; the “colonies on TK selection plates, 37° C.” value was “++”; the “colonies on TK selection plates, 42° C.” value is “++”. Further, in the data set on KY895, the “colonies on LB plates” value is “++”. Besides, the “phosphorylation of thymidine relative to HSVTKII” value in data set [5] worked out at 2.6 fold. Also, the “phosphorylation of deoxycytidine over the wild-type enzyme” value in data set [2] was 2.8 fold. The “ACV phosphorylation over HSVTKII” value in data set [3] is listed as 2.4 fold. The “TK activity … compared to wild-type” value in data set [1] is “statistically higher affinity for thymidine than the wild-type TK”.

In the case of “gmk: wild-type guanylate kinase (murine gmk used in the fusions)”, in data set [6], the Km (usually the substrate concentration at which the rate is half of its maximum) was 25 µM.
